Source: US9447136B2, “Semisynthetic derivatives of Nystatin A1” (BLIRT S.A., priority 2012, dated 2016)
≈ marks a conversion by molar mass, not a printed value.

Assays:
[1] = test system: Candida pseudotropicalis KKP 324; experiment: Antifungal activity in vitro, serial dilution in RPMI 1640; type: cell-based; conditions: Table 2B
Procedure, shortened: (§1)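 Susceptibility determined by the NCCLS M27-A2 broth dilution method in RPMI 1640, pH 7.0. MIC defined as the lowest compound concentration reducing A531 to at most 20% of the untreated control; IC50 interpolated where A531 reached 50% of control.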

[2] = test system: Candida dubliniensis CBS 7987; experiment: as above; type: cell-based; conditions: Table 2B
Procedure, shortened: as §1

[3] = test system: Trichoderma viride LOCK E159; experiment: as above; type: cell-based; conditions: Table 2B
Procedure, shortened: as §1

[4] = test system: Candida quilliermondii DSM 11947; experiment: as above; type: cell-based; conditions: Table 2B
Procedure, shortened: as §1

[5] = test system: Saccharomyces cerevisiae ATCC 9763; experiment: as above; type: cell-based; conditions: Table 2B
Procedure, shortened: as §1

[6] = test system: Candida parapsilosis DSM 5784; experiment: as above; type: cell-based; conditions: Table 2B
Procedure, shortened: as §1

[7] = test system: Candida albicans ATCC 10231; experiment: as above; type: cell-based; conditions: Table 2B
Procedure, shortened: as §1

[8] = test system: Candida lipolytica KKP 322; experiment: as above; type: cell-based; conditions: Table 2B
Procedure, shortened: as §1

Candida arborea KKP 319 = experiment: as above; type: cell-based; conditions: Table 2B
Procedure, shortened: as §1

[9] = test system: Candida stellatoidea CBS 1905; experiment: as above; type: cell-based; conditions: Table 2B
Procedure, shortened: as §1

[10] = test system: Aspergillus niger LOCK E201; experiment: as above; type: cell-based; conditions: Table 2B
Procedure, shortened: as §1

Candida albicans Gu5 = experiment: Antifungal activity towards resistant (MDR) strains; type: cell-based; conditions: fluconazole-resistant due to the overexpression of CDR1 and CDR2
Method: (§2) The determination of antifungal activity was performed by the serial dilutions method in buffered RPMI 1640 medium, in a 96-wells microplates, according to the standard procedure (National Committee for Clinical Laboratory Standards. Reference method for broth dilution antifungal susceptibility testing of yeast, approved standard, 2nd ed. M27-A2 vol. 22 Wayne, Pa., 2002). The optical density of cells suspension was measured using a microplates reader (Victor^3, Perkin-Elmer) at the wavelength λ=660 nm (A660). On the basis of received results the diagrams on interrelation between the A660 value and the concentration of tested compound were made. From these graphs MIC values were read, that are the concentrations of tested compounds, in the presence at which A660 value is at most 20% of A660 value measured in control sample.

Candida albicans Gu4 = experiment: as above; type: cell-based; conditions: fluconazole sensitive, parent strain for Gu5
Method: as §2

Candida albicans F5 = experiment: as above; type: cell-based
Method: as §2

Candida albicans STY19 = experiment: as above; type: cell-based
Method: as §2

Candida albicans STY7 = experiment: as above; type: cell-based
Method: as §2

Candida albicans F2 = experiment: as above; type: cell-based; conditions: fluconazole sensitive, parent strain for F5
Method: as §2

Candida albicans STY31 = experiment: as above; type: cell-based
Method: as §2

Candida albicans B4 = experiment: as above; type: cell-based
Method: as §2

Candida albicans B3 = experiment: as above; type: cell-based; conditions: fluconazole sensitive, parent strain for B4
Method: as §2

Candida albicans 5674 = experiment: as above; type: cell-based
Method: as §2

Human erythrocytes = experiment: Hemotoxicity (hemolytic activity)
Method: The hemotoxicity determination were carried out by the serial dilutions method, according to the procedure described earlier (Ślisz, M., et al., E., J Antibiot 57: 669-678 (2004)). Human erythrocytes were suspensed in the solution of saline to obtain a cell density of suspension 2×10^7/ml. Suitable amounts of diluted solutions of compounds were added to the cell suspension in tubes and were incubated at 37° C. for 30 minutes and then centrifuged (1700×g, 10 min, 4° C.). The concentration of hemoglobin in supernatant after centrifugation of erythrocytes suspension were determined by measuring the absorbance at wavelength λ=540 nm (A540). The maximum level of hemolysis was obtained after incubation of cells suspension in the presence of 0.1% Tritone X-100 (control sample). […] From these graphs, the EH50 values were read which are the interpolated concentrations of compound, for which the A540 value is exactly 50% of the A540 value measured for the control sample.

C[C@@H]1[C@H](O)[C@@H](C)/C=C/C=C/CC/C=C/C=C/C=C/C=C/[C@H](O[C@@H]2O[C@H](C)[C@@H](O)[C@H](NC(=O)[C@H](N)c3ccccc3)[C@@H]2O)C[C@@H]2O[C@](O)(C[C@@H](O)C[C@@H](O)[C@H](O)CC[C@@H](O)C[C@@H](O)CC(=O)O[C@H]1C)C[C@H](O)[C@H]2C(=O)O [Compound N33, N-D-phenylglycylnystatin A1]
MIC Candida pseudotropicalis KKP 324 [1]: 8 µg/mL (≈ 7.55 µM) | MIC Candida dubliniensis CBS 7987 [2]: 16 µg/mL (≈ 15.1 µM) | MIC Trichoderma viride LOCK E159 [3]: 32 µg/mL (≈ 30.2 µM) | MIC Candida quilliermondii DSM 11947 [4]: 16 µg/mL (≈ 15.1 µM) | MIC Saccharomyces cerevisiae ATCC 9763 [5]: 4 µg/mL (≈ 3.78 µM) | MIC Candida parapsilosis DSM 5784 [6]: 32 µg/mL (≈ 30.2 µM) | MIC Candida albicans ATCC 10231 [7]: 8 µg/mL (≈ 7.55 µM) | MIC Candida lipolytica KKP 322 [8]: 16 µg/mL (≈ 15.1 µM) | MIC Candida arborea KKP 319 (Candida arborea KKP 319): 32 µg/mL (≈ 30.2 µM) | MIC Candida stellatoidea CBS 1905 [9]: 8 µg/mL (≈ 7.55 µM) | MIC Aspergillus niger LOCK E201 [10]: 32 µg/mL (≈ 30.2 µM) | MIC Candida albicans Gu5 (Candida albicans Gu5): 8 µg/mL (≈ 7.55 µM) | MIC Candida albicans Gu4 (Candida albicans Gu4): 8 µg/mL (≈ 7.55 µM) | MIC Candida albicans F5 (Candida albicans F5; fluconazole-resistant due to the overexpression of CaMDR1 and ERG11): 32 µg/mL (≈ 30.2 µM) | MIC Candida albicans STY19 (Candida albicans STY19; 5674 mutant derivative, deletion of CDR1): 16 µg/mL (≈ 15.1 µM) | MIC Candida albicans STY7 (Candida albicans STY7; 5674 mutant derivative, deletion of CDR2): 16 µg/mL (≈ 15.1 µM) | MIC Candida albicans F2 (Candida albicans F2): 16 µg/mL (≈ 15.1 µM) | MIC Candida albicans STY31 (Candida albicans STY31; 5674 mutant derivative, deletion of CDR1 and CDR2): 16 µg/mL (≈ 15.1 µM) | MIC Candida albicans B4 (Candida albicans B4; fluconazole-resistant due to the overexpression of CaMDR1): 8 µg/mL (≈ 7.55 µM) | MIC Candida albicans B3 (Candida albicans B3): 4 µg/mL (≈ 3.78 µM) | MIC Candida albicans 5674 (Candida albicans 5674; C. albicans 5674 overexpressing CDR1 and CDR2): 16 µg/mL (≈ 15.1 µM) | % of hemolysis at the concentration 300 μg ml^−1 (Human erythrocytes): 8.69% | EH10 (Human erythrocytes): >300 µg/mL

OC(Cn1cncn1)(Cn1cncn1)c1ccc(F)cc1F [Fluconazole, reference compound]
MIC ([1]; Kluyveromyces marxianus, KKP324): 0.5 µg/mL (≈ 1.63 µM) | MIC ([2]; Candida dubliniensis, CBS7987): 2 µg/mL (≈ 6.53 µM) | MIC ([3]; Trichoderma viride, LOCKE159): 8 µg/mL (≈ 26.1 µM) | MIC ([4]; Candida, DSM11947): 8 µg/mL (≈ 26.1 µM) | MIC ([5]; Saccharomyces cerevisiae, ATCC9763): 2 µg/mL (≈ 6.53 µM) | MIC ([6]; Lodderomyces parapsilosis, DSM5784): 8 µg/mL (≈ 26.1 µM) | MIC ([7]; Candida albicans, ATCC10231): 2 µg/mL (≈ 6.53 µM) | MIC ([8]; Yarrowia lipolytica, KKP322): 8 µg/mL (≈ 26.1 µM) | MIC (Candida arborea KKP 319; Candida, KKP319): 8 µg/mL (≈ 26.1 µM) | MIC ([9]; Candida albicans, CBS1905): 0.5 µg/mL (≈ 1.63 µM) | MIC ([10]; Aspergillus niger, LOCKE201): 16 µg/mL (≈ 52.2 µM) | MIC (Candida albicans Gu5; Candida albicans, GU5): 256 µg/mL (≈ 836 µM) | MIC (Candida albicans Gu4; Candida albicans, GU4): 0.5 µg/mL (≈ 1.63 µM) | MIC (Candida albicans F5; Candida albicans, F5, read-out: MIC Candida albicans F5): 128 µg/mL (≈ 418 µM) | MIC (Candida albicans STY19; Candida albicans, STY19, read-out: MIC Candida albicans STY19): 64 µg/mL (≈ 209 µM) | MIC (Candida albicans STY7; Candida albicans, STY7, read-out: MIC Candida albicans STY7): 512 µg/mL (≈ 1670 µM) | MIC (Candida albicans F2; Candida albicans, F2): 32 µg/mL (≈ 104 µM) | MIC (Candida albicans STY31; Candida albicans, STY31, read-out: MIC Candida albicans STY31): 64 µg/mL (≈ 209 µM) | MIC (Candida albicans B4; Candida albicans, B4, read-out: MIC Candida albicans B4): 16 µg/mL (≈ 52.2 µM) | MIC (Candida albicans B3; Candida albicans, B3): 0.5 µg/mL (≈ 1.63 µM) | MIC (Candida albicans 5674; Candida albicans, 5674, read-out: MIC Candida albicans 5674): 2050 µg/mL (≈ 6690 µM)
